Measurements from PubChem BioAssay (NCI).
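These data come from cells grown in 96-well plates and exposed to compound for 48 hours at five concentrations. Here, GI50 denotes the concentration required for 50% inhibition of growth. TGI denotes the concentration required for complete inhibition of growth.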

What was measured:
Test in all cases: NCI-60 cell line screen, 48 h
[1] = system: MALME-3M melanoma
[2] = system: K-562 leukemia
[3] = system: PC-3 prostate
[4] = system: HCC-2998 colon
[5] = system: SF-539 CNS
[6] = system: SW-620 colon
[7] = system: SNB-75 CNS
[8] = system: U251 CNS
[9] = system: CCRF-CEM leukemia
[10] = system: HL-60(TB) leukemia

| Compound | GI50 [1] [µM] | TGI [1] [µM] | TGI [2] [µM] | GI50 [3] [µM] | TGI [3] [µM] | GI50 [4] [µM] | TGI [4] [µM] | GI50 [5] [µM] | TGI [5] [µM] | GI50 [6] [µM] | TGI [6] [µM] | GI50 [7] [µM] | TGI [7] [µM] | GI50 [8] [µM] | TGI [8] [µM] | GI50 [9] [µM] | TGI [9] [µM] | TGI [10] [µM] | GI50 [2] [µM] | GI50 [10] [µM] |
| --- | --- | --- | --- | --- | --- | --- | --- | --- | --- | --- | --- | --- | --- | --- | --- | --- | --- | --- | --- | --- |
| C[C@]12CC[C@@H](OC(=O)N(CCCl)N=O)C[C@@H]1CC[C@@H]1[C@@H]2CC[C@]2(C)C(=O)CC[C@@H]12 | 18.1 | 50.2 | > 100 | 11.5 | > 96 | 2.77 | 9.43 | 0.33 | 13.4 | 7.67 | 22.6 | 2.74 | 30.5 | 0.851 | 15.7 | 14.2 | > 100 | – | – | – |
| COC(=O)[C@]1(C)C(OC)=CC(=O)C2C1[C@H]1CCC[C@@H]21 (some centres not stated) | – | > 100 | > 100 | – | – | – | > 100 | – | > 100 | – | – | – | > 100 | – | > 100 | – | > 100 | > 100 | – | – |
| COC(=O)C(CC(=O)c1c[nH]c2ccccc12)c1c[nH]c2ccccc12 (configuration not stated) | – | 52.3 | 66.7 | – | – | – | 45.5 | – | 39.5 | – | 57.2 | – | 58 | – | 50.4 | – | 73.7 | 49.4 | – | – |
| S=P(N1CCCC1)(N1CC1)N1CC1 | – | > 100 | > 100 | – | – | – | > 100 | – | > 100 | – | > 100 | – | > 100 | – | > 100 | – | > 100 | > 100 | – | – |
| CCOC(=O)c1c(-c2ccccc2)c(C(OC(c2ccccc2)c2c(-c3ccccc3)c(C(=O)OCC)n3ccccc23)c2ccccc2)c2ccccn12 (configuration not stated) | – | > 100 | > 100 | – | – | – | > 100 | – | – | – | > 100 | – | > 100 | – | – | – | > 100 | > 100 | – | – |
| Nc1ccc(C(=O)CC2(O)C(=O)Nc3c(Cl)cc(Cl)cc32)cc1 (configuration not stated) | – | > 100 | > 100 | – | – | – | > 100 | – | > 100 | – | 65.4 | – | > 100 | – | 95.7 | – | > 100 | 78.5 | – | – |
| NC(=S)N/N=C1\CCCC1C(O)(C(F)(F)Cl)C(F)(F)Cl (configuration not stated) | – | > 10 | > 10 | – | > 10 | – | > 10 | – | > 10 | – | > 10 | – | > 10 | – | > 10 | – | > 10 | – | – | – |
| COc1cc(C2c3cc4c(cc3[C@@H](OCCN(C)C)C3COC(=O)[C@H]23)OCO4)cc(OC)c1O (some centres not stated) | – | 1.87 | > 100 | – | – | – | – | – | 0.702 | – | 3.59 | – | 3.75 | – | 1.27 | – | – | > 100 | – | – |
| Cc1ccc(/C=C2/NC(=S)SC2=O)cc1 | – | – | – | – | > 100 | – | > 100 | – | > 100 | – | > 100 | – | 80.8 | – | > 100 | – | – | > 100 | – | – |
| CN1C(=O)C2C=CC1C1CCC2N(C)C1=O (configuration not stated) | – | > 100 | > 100 | – | – | – | > 100 | – | > 100 | – | > 100 | – | > 100 | – | > 100 | – | > 100 | > 100 | – | – |
| O=c1cc(-c2ccccn2)[nH]c2cc(F)ccc12 | – | > 100 | > 100 | – | – | – | > 100 | – | > 100 | – | > 100 | – | > 100 | – | – | – | – | > 100 | – | – |
| Cc1c(Cl)cccc1NC(=O)/C(Cl)=C(\Cl)C(=O)O | – | 32.2 | > 100 | – | – | – | 35.5 | – | 31.7 | – | 39.9 | – | 46.7 | – | 32.7 | – | 44.5 | – | – | – |
| COC(=O)C1Cc2c([nH]c3ccccc23)C(c2ccccc2O)N1Cc1ccccc1 (configuration not stated) | – | > 31.6 | > 46.4 | – | – | – | > 31.6 | – | 65.2 | – | > 46.4 | – | 18.8 | – | 39.5 | – | > 46.4 | > 46.4 | – | – |
| COc1c(Sc2ccccc2)cc(Sc2ccccc2)c2cccnc12 | – | 44.1 | > 100 | – | – | – | > 100 | – | 85.5 | – | > 100 | – | 66 | – | 70.7 | – | 54.5 | – | – | – |
| CC1=NOC(=O)C1N=Nc1ccc(Br)c(C)c1 (configuration not stated) | – | 33.3 | 30.5 | – | – | – | 60.6 | – | 44.6 | – | 34.7 | – | 60.5 | – | 37.8 | – | 34.3 | 23.8 | – | – |
| COC(=O)[C@H]1N[C@@H](C(=O)OC)C23CCC[C@H]2CC[C@]1(C(OC)OC)C3 | – | > 100 | > 100 | – | – | – | > 100 | – | > 100 | – | > 100 | – | > 100 | – | > 100 | – | > 100 | > 100 | – | – |
| COc1ccc(/C=C\c2cc(OC)c(OC)c(OC)c2)c(NS(=O)(=O)c2ccc(Cl)cc2)c1O | – | – | 20.2 | 0.153 | > 100 | 0.429 | 16.4 | 0.0371 | 10.5 | 0.0694 | > 100 | 0.0331 | 17.4 | 0.287 | 15.5 | 0.159 | > 100 | 0.265 | 0.0323 | 0.0331 |
| COC(=O)c1ccc2c(c1)C(=O)c1c-2n(CCCN)c(=O)c2cc(OC)c(OC)cc12 | 18.7 | 45.7 | 5.44 | 8.73 | > 51.4 | 11.9 | 25.9 | 17.7 | 34.7 | 7.9 | 24.4 | 16.5 | 32.9 | 16 | 32.1 | 3.78 | 10.2 | – | 2.41 | – |
| CCN(CC)CCOc1c(OC)c(Br)cc2c(C)c(C(=O)OC)oc12 | – | – | 2.09 | 0.368 | 1.03 | 2.42 | 7.41 | 1.47 | 3.15 | 0.802 | 2.04 | – | – | 0.28 | 0.97 | 0.154 | 0.72 | – | 0.332 | – |
| NC(=O)c1csc(C2CCC(CO)O2)n1 (configuration not stated) | – | > 100 | > 100 | – | – | – | > 100 | – | > 100 | – | > 100 | – | – | – | > 100 | – | > 100 | > 100 | – | – |
| CCOC(=O)c1c2c(n(Cc3ccccc3)c1C)-c1nc(Cc3ccccc3)[nH]c1C(=O)C2=O | 1.61 | 3.26 | 4.05 | 1.45 | 3.2 | 2.6 | 4.09 | 1.77 | 3.3 | 1.84 | 3.28 | 1.49 | 2.81 | 1.77 | 3.15 | 0.962 | 2.97 | – | 1.85 | – |
